Experimental findings from ChEMBL document CHEMBL1201862, “PubChem BioAssay data set” (2004) are described below.

Molecules are shown by their SMILES.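 Grown in 96-well plates, cells were treated for 48 hours with each compound at five concentrations. Insufficient inhibition: endpoint recorded as highest concentration tested. GI50 = concentration required for 50% inhibition of growth.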 The source made the active and inactive calls. Rule as the data show it: active = GI50 up to about 1.1 µM and inactive = higher. Bounds are passed on as bounds.

Among the test systems are SK-MEL-28; CCRF-CEM; NCI/ADR-RES; UACC-62; SK-MEL-5; SNB-19; IGROV-1; SF-268; K562; ACHN; PC-3; MDA-MB-435; Malme-3M; COLO 205; A549; UO-31; BT-549; HCT-15; SN12C; SK-MEL-2.
Common to all, as to experiment: DTP human tumour cell line panel, 48 h

Broadly, the GI50 is the concentration giving 50% growth inhibition. In the case of `Cc1cc2cc3c(Cl)c(CCCl)c(C)nc3cc2c(Cl)c1CCCl`, the GI50 in the experiment with SK-MEL-28 was 18 µM (inactive); in the experiment with CCRF-CEM, 23.4 µM (inactive); with NCI/ADR-RES, 22.9 µM (inactive); in the experiment on UACC-62 it was 15.6 µM (inactive); with SK-MEL-5 it was 12.6 µM (inactive); with SNB-19, 16.4 µM (inactive). For the same compound, the GI50 in the experiment on IGROV-1 was 26.2 µM (inactive); in the experiment on SF-268, 11.2 µM (inactive); in the experiment with K562 it was 17.4 µM (inactive); with ACHN it was 20.9 µM (inactive); in the experiment with PC-3, 14.4 µM (inactive); in the experiment on MDA-MB-435 it was 15.6 µM (inactive). Moreover, the GI50 was 20.8 µM (inactive) in the experiment on Malme-3M; 16.6 µM (inactive) in the experiment on COLO 205; 17.8 µM (inactive) in the experiment on A549; 16.1 µM (inactive) in the experiment with UO-31; 19.9 µM (inactive) with BT-549; 24.9 µM in the experiment with HCT-15.
As to `O=c1c2ccccc2[nH]n1Cc1ccccc1`, the GI50 in the experiment with SK-MEL-28, with CCRF-CEM, in the experiment with NCI/ADR-RES, with UACC-62, in the experiment with SN12C and with SK-MEL-5 was > 100 µM (inactive) throughout. The GI50 in the experiment on SNB-19, in the experiment on IGROV-1, in the experiment on SF-268, with K562, with ACHN and in the experiment with PC-3 was > 100 µM (inactive) each time. Besides, the GI50 in the experiment on MDA-MB-435, with COLO 205, in the experiment with SK-MEL-2, in the experiment with A549, with UO-31 and with BT-549 was > 100 µM (inactive) throughout. The compound further came in with a concentration for 50% growth inhibition (GI50) in the experiment on HCT-15 of more than 100 µM.
For `CC(=O)Oc1cc2c(n(C)c1=O)CCC2`, the GI50 is > 100 µM (inactive) in the experiment on SK-MEL-28; > 100 µM (inactive) with CCRF-CEM; 35.5 µM (inactive) in the experiment with NCI/ADR-RES; > 100 µM (inactive) with SN12C; > 100 µM (inactive) with SK-MEL-5; > 100 µM (inactive) with SNB-19. For the same compound, the GI50 with IGROV-1, with SF-268, with K562, in the experiment with ACHN, in the experiment with PC-3 and in the experiment on MDA-MB-435 was > 100 µM (inactive) throughout. The GI50 in the experiment with Malme-3M is > 100 µM (inactive); in the experiment on COLO 205, > 100 µM (inactive); with SK-MEL-2, > 100 µM (inactive); in the experiment on A549 it was > 100 µM (inactive); in the experiment with UO-31 it was 99.5 µM (inactive); with BT-549, > 100 µM (inactive). The compound also showed a concentration for 50% growth inhibition (GI50) with HCT-15 of 33.6 µM.
On to `CCCCC1=CC1(C#N)[N+](=O)[O-]` (centres undefined), for which the GI50 is > 100 µM (inactive) in the experiment on SK-MEL-28; 18.1 µM (inactive) in the experiment with CCRF-CEM; > 100 µM (inactive) in the experiment on NCI/ADR-RES; 60.3 µM (inactive) in the experiment on UACC-62; 90.8 µM (inactive) in the experiment with SN12C; 36.5 µM (inactive) in the experiment with SK-MEL-5. Also, the GI50 in the experiment on SNB-19 is > 100 µM (inactive); with IGROV-1 it was > 100 µM (inactive); with SF-268, > 100 µM (inactive); with K562 it was 22.3 µM (inactive); in the experiment with ACHN, > 100 µM (inactive); in the experiment with PC-3 it was > 100 µM (inactive). Further, the GI50 was > 100 µM (inactive) in the experiment with MDA-MB-435; 53.6 µM (inactive) in the experiment with Malme-3M; > 100 µM (inactive) with COLO 205; > 100 µM (inactive) with A549; > 100 µM (inactive) with UO-31; 40.6 µM (inactive) with BT-549. In addition, the GI50 in the experiment with HCT-15 was more than 100 µM.
Regarding `O=C(NCCN1CCCCC1)c1ccc(Br)cc1`, the GI50 in the experiment with SK-MEL-28, in the experiment with NCI/ADR-RES, in the experiment with SN12C, with SK-MEL-5, with SNB-19 and in the experiment on IGROV-1 was > 100 µM (inactive) each time. Moreover, the GI50 with SF-268, in the experiment on K562, in the experiment on ACHN, with PC-3, with MDA-MB-435 and in the experiment with Malme-3M was > 100 µM (inactive) throughout. Besides, the GI50 with COLO 205 is > 100 µM (inactive); in the experiment on SK-MEL-2, > 100 µM (inactive); in the experiment on A549, > 100 µM (inactive); in the experiment with UO-31, > 100 µM (inactive); in the experiment on BT-549, > 100 µM (inactive); with HCT-15 it was more than 100 µM.
Consider `NC(=O)NNCc1ccccc1`, for which the GI50 in the experiment on CCRF-CEM, in the experiment with NCI/ADR-RES, with UACC-62, in the experiment on SN12C, in the experiment with SK-MEL-5 and with SNB-19 was > 100 µM (inactive) each time. Further, the GI50 in the experiment with IGROV-1, in the experiment with SF-268, in the experiment with K562, with ACHN, in the experiment with PC-3 and in the experiment with MDA-MB-435 was > 100 µM (inactive) in each case. The GI50 in the experiment with COLO 205 is > 100 µM (inactive); with SK-MEL-2, > 100 µM (inactive); in the experiment with A549, > 100 µM (inactive); with UO-31, > 100 µM (inactive); in the experiment on BT-549 it was > 100 µM (inactive); with HCT-15 it was more than 100 µM.
Turning to `CN(C)c1ccc(/C=C/C(=O)N[C@@H]2C(=O)N3[C@@H]2SC(C)(C)[C@@H]3C(=O)O)cc1`, the GI50 in the experiment on SK-MEL-28, with CCRF-CEM, in the experiment with NCI/ADR-RES, in the experiment with UACC-62, in the experiment with SN12C and in the experiment with SK-MEL-5 was > 100 µM (inactive) each time. The GI50 in the experiment on SNB-19, in the experiment with SF-268, in the experiment with K562, with ACHN, with PC-3 and with MDA-MB-435 was > 100 µM (inactive) in each case. Further, the GI50 in the experiment with COLO 205 is > 100 µM (inactive); in the experiment on SK-MEL-2, > 100 µM (inactive); with A549 it was > 100 µM (inactive); with UO-31, > 100 µM (inactive); in the experiment on BT-549 it was > 100 µM (inactive); with HCT-15, more than 100 µM.
As for `CCOC(=O)NN(C(=O)OCC)C(=C(C1=CCCCC1)N1CCOCC1)N(NC(=O)OCC)C(=O)OCC`, the GI50 with SK-MEL-28, in the experiment with NCI/ADR-RES, in the experiment with UACC-62, in the experiment on SN12C, in the experiment on SNB-19 and in the experiment with IGROV-1 was > 100 µM (inactive) in each case. In addition, the GI50 in the experiment with SF-268, with K562, in the experiment on ACHN, with PC-3, in the experiment with MDA-MB-435 and in the experiment with Malme-3M was > 100 µM (inactive) throughout. The GI50 in the experiment with COLO 205 was > 100 µM (inactive); in the experiment with A549, > 100 µM (inactive); in the experiment with UO-31 it was > 100 µM (inactive); with BT-549 it was > 100 µM (inactive); with HCT-15, more than 100 µM.
As to `COc1ccc(-c2c(C(=O)Nc3ccccc3)c(-c3ccccc3)n(C3OC(CO)C(O)C(O)C3O)c(=S)c2C#N)cc1` (centres undefined), the GI50 with SK-MEL-28, with CCRF-CEM, in the experiment on NCI/ADR-RES, in the experiment with UACC-62, with SN12C and with SK-MEL-5 was > 100 µM (inactive) throughout. The GI50 with SNB-19, in the experiment on IGROV-1, in the experiment on SF-268, in the experiment on K562, with ACHN and in the experiment on PC-3 was > 100 µM (inactive) each time. The GI50 was > 100 µM (inactive) in the experiment on MDA-MB-435; > 100 µM (inactive) in the experiment with Malme-3M; > 100 µM (inactive) in the experiment on COLO 205; > 100 µM (inactive) in the experiment on A549; > 100 µM (inactive) in the experiment with UO-31; 0.719 µM (active) in the experiment with BT-549. The compound also displayed a 50% growth inhibitory concentration (GI50) in the experiment with HCT-15 of more than 100 µM.
Take `O=C(c1ccco1)C1CC(c2ccc3ccccc3c2O)=NN1c1ccc([N+](=O)[O-])cc1[N+](=O)[O-]` (centres undefined): the GI50 in the experiment with SK-MEL-28 is 40.6 µM (inactive); in the experiment with CCRF-CEM, 2.29 µM (inactive); in the experiment with NCI/ADR-RES it was 21.1 µM (inactive); with UACC-62, 17.6 µM (inactive); in the experiment with SN12C, 32.8 µM (inactive); in the experiment on IGROV-1 it was 14 µM (inactive). Further, the GI50 in the experiment on SF-268 is 19.4 µM (inactive); in the experiment with ACHN, 20.5 µM (inactive); in the experiment with PC-3, 16.4 µM (inactive); in the experiment on MDA-MB-435, 28.9 µM (inactive); in the experiment on Malme-3M, 37 µM (inactive); in the experiment with COLO 205, 16.3 µM (inactive). Moreover, the GI50 in the experiment with SK-MEL-2 was 24.5 µM (inactive); in the experiment with A549 it was 22.3 µM (inactive); in the experiment with UO-31, 16.6 µM (inactive); in the experiment with BT-549, 29.7 µM (inactive); in the experiment with HCT-15 it was 17.9 µM.
In the case of `O=[N+]([O-])/C(C(Cl)=C(Cl)Cl)=C(/Nc1cccc2cccnc12)n1nnc2ccccc21`, the GI50 in the experiment on SK-MEL-28 was 18.4 µM (inactive); in the experiment with CCRF-CEM it was 2.88 µM (inactive); with NCI/ADR-RES, 21.8 µM (inactive); in the experiment on SN12C, 16.3 µM (inactive); with SNB-19 it was 16.9 µM (inactive); with SF-268 it was 16.5 µM (inactive). For the same compound, the GI50 in the experiment with K562 is 6.41 µM (inactive); in the experiment with ACHN, 19.7 µM (inactive); in the experiment on PC-3, 19.2 µM (inactive); in the experiment with MDA-MB-435 it was 15.9 µM (inactive); in the experiment on Malme-3M it was 6.85 µM (inactive); with COLO 205 it was 17.3 µM (inactive). Besides, the GI50 in the experiment with SK-MEL-2 was 15.3 µM (inactive); in the experiment on A549, 27.3 µM (inactive); with UO-31, 15.8 µM (inactive); with BT-549, 14.2 µM (inactive); in the experiment with HCT-15, 10.8 µM.
